Data: PMC5567249, “Reversible inactivation of a peptidoglycan transpeptidase by a β-lactam antibiotic mediated by β-lactam-ring recyclization in the enzyme active site” (Scientific Reports, 2017)

Assays:
Ldtfm [1] = biological target: T1, Ldtfm (Enterococcus faecium, UniProt Q3Y185); experiment: stopped-flow competition with nitrocefin at […] nm; type: binding; settings: covalent; irreversible acylation; 22 µM enzyme, 50 µM nitrocefin, 64 µM imipenem; 100 mM sodium phosphate pH 6.0; 20 °C
T1 construct: gene HMPREF0351_12555; catalytic domain, residues 341 to 466
T1 sequence (Q3Y185 entry or part of it): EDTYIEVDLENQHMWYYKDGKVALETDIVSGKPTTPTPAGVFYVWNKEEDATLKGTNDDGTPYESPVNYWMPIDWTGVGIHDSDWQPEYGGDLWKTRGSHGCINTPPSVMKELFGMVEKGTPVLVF

Ldtfm [2] = biological target: T1, Ldtfm; experiment: stopped-flow spectrophotometry at […] nm, slope of kobs against nitrocefin concentration; type: biochemical; settings: covalent; reversible acylation of catalytic Cys; 11 µM enzyme; 100 mM sodium phosphate pH 6.0; 20 °C

Structure (SMILES) | stopped-flow competition with nitrocefin at 486 nm (Ldtfm [1]) | efficacy of the acylation reaction (Ldtfm [2])
C[C@@H](O)[C@H]1C(=O)N2C(C(=O)O)=C(SCCN=CN)C[C@H]12 [imipenem] | imipenem gradually replaced nitrocefin in the enzyme active site | 
O=C(Cc1cccs1)N[C@@H]1C(=O)N2C(C(=O)O)=C(/C=C/c3ccc([N+](=O)[O-])cc3[N+](=O)[O-])CS[C@H]12 [nitrocefin] |  | 24,000 ± 700 M^−1 s^−1
